Tests used:
E6 and E7 = assay: Expression of HPV-16 E6 and E7 oncoproteins (Western blotting); assay type: cell-based, HPV16; conditions: after induced hypomethylation of the E2-binding sites
Description: The detection of the expression of viral oncogenic proteins was realized by Western blotting technique using commercially available antibodies, raised against E6 and E7.
(§1) The described HPV16 DNA methylomes also reflect the proposed expression patterns of the virus in cervical tumorigenesis, characterized by a significant overexpression of E6 and E7 in the carcinomas. […] This event is particularly observed for the E1/E2 region. The protein E2 is an inhibitor of cell proliferation by regulating the viral URR, repressing the E6 and E7 oncoproteins and ultimately causing cell cycle arrest at G2 (Frattini 1997 EMBO J). Thus, the genomic loss of E2 could contribute to the progression of the disease. […] We observe instead methylation of the E2-binding sites at the URR region that are associated with high level of expression of the oncoproteins E6 and E7. Most important, we show by chromatin immunoprecipitation (ChIP) that the E2 viral protein cannot bind to the methylated E2-binding sites at the URR region, and thus leads to E6 and E7 overexpression.

[1] = system: E2-binding sites at the URR region; assay: Chromatin immunoprecipitation (ChIP) of E2 viral protein at the E2-binding sites of the URR; assay type: cell-based; conditions: after induced hypomethylation of the E2-binding sites
Description: as §1

HPV16 genome = assay: DNA methylation of the HPV16 genome (bisulfite genomic sequencing); assay type: cell-based
Description: To determine the methylation pattern of all […] genes, Bisulfite Genomic Sequencing and Methylation-specific PCR (MSP) were used. Essentially, both detection methods use the C to T conversion by bisulfite when the cytosine is not methylated. The Primers used are described in Table 1 (Bisulfite genomic sequencing—SEQ ID NOs 1 to 42) and Table 2 (Methylation-specific PCR—SEQ ID NOs 43 to 46).
Thus, the viral genome is methylated by the host human cellular DNMTs. Because the integration of HPV16 in the human genome occurs in most cervical tumors and a significant proportion of premalignant lesions, we can consider that human DNMTs might recognize these sequences as “foreign” DNA that needs to be methylated. Indeed in our study, we have confirmed by FISH analyses that the HPV16 genome is integrated in the host cell DNA in CaSki and SiHa.
The described HPV16 DNA methylomes also reflect the proposed expression patterns of the virus in cervical tumorigenesis, characterized by a significant overexpression of E6 and E7 in the carcinomas. […] This event is particularly observed for the E1/E2 region. The protein E2 is an inhibitor of cell proliferation by regulating the viral URR, repressing the E6 and E7 oncoproteins and ultimately causing cell cycle arrest at G2 (Frattini 1997 EMBO J). Thus, the genomic loss of E2 could contribute to the progression of the disease. […]

In the case of `Nc1ncn([C@H]2C[C@H](O)[C@@H](CO)O2)c(=O)n1` [5-aza-2′-deoxycytidine], the “E6 and E7 expression” value (E6 and E7) is reported as “marked reduction”, the “recruitment of E2 to its URR binding sites” value [1] is reported as “recruitment of E2 to its URR binding sites” and the “methylation of the E2-binding sites at the URR region” value (HPV16 genome) is reported as “hypomethylation events”.
